molecular target: ΔF508-CFTR (Homo sapiens (Human), UniProt P13569, DEL508-508); assay: CFTR potentiator assays (membrane potential, IonWorks Quattro, Ussing chamber ion transport); patent does not say which gave the EC50; format: cell-based; settings: Table 1, representative compounds; data measurements described above; read-out: EC50
From the text: CFTR activity can be quantified by measuring the transmembrane potential. The means for measuring the transmembrane potential in a biological system can employ a number of methods including electrophysiological and optical fluorescence-based membrane potential assays.
The optical membrane potential assay utilises a negatively charged potentiometric dye, such as the FLIPR membrane potential dye (FMP) (see Baxter D F, Kirk M, Garcia A F, Raimondi A, Holmqvist M H, Flint K K, Bojanic D, Distefano P S, Curtis R, Xie Y. ‘A novel membrane potential-sensitive fluorescent dye improves cell-based assays for ion channels.’ J Biomol Screen. 2002 February; 7(1):79-85) which when extracellular is bound to a quenching agent. Upon cellular depolarisation the negatively charged dye redistributes to the intracellular compartment, unbinding from the membrane impermeant quench agent, yielding an increase in fluorescence. This change in fluorescence is proportional to the change in transmembrane potential which can result from the activity of CFTR. The changes in fluorescence can be monitored in real time by an appropriately equipped fluorescence detector such as the FLIPR (fluorometric imaging plate reader) in 96 or 384-well microtitre plates.
Chinese hamster ovary (CHO) cells stably expressing the ΔF508-CFTR channel were used for membrane potential experiments. Cells were maintained at 37° C. in 5% v/v CO2 at 100% humidity in Modified Eagles medium (MEM) supplemented with 8% v/v foetal calf serum, 100 µg/ml methotrexate and 100 U/ml penicillin/streptomycin. Cells were grown in 225 cm^2 tissue culture flasks. For membrane potential assays cells were seeded into 96 well plates at 40,000 cells per well, allowed to adhere and then maintained at 26° C. for 48 h to facilitate channel insertion.
The membrane potential screening assay utilised a low chloride ion containing extracellular solution (˜5 mM) combined with a double addition protocol. The first addition was of buffer with or without test compound followed 5 minutes later by an addition of forskolin (1-20 μM)—this protocol favours maximum chloride efflux in response to ΔF508-CFTR activation. The ΔF508-CFTR mediated chloride ion efflux leads to a membrane depolarisation which is optically monitored by the FMP dye.
Low chloride extracellular (mM): 120 Na-gluconate, 1.2 CaCl2, 3.3 KH2PO4, 0.8 K2HPO4, 1.2 MgCl2, 10.0 D-glucose, 20.0 HEPES, pH 7.4 with NaOH FMP dye: made up as per manufacturers' instructions in low chloride extracellular solution detailed above, at 10× final concentration, and stored as 1 mL aliquots at −20° C.
CFTR activity can also be quantified electrophysiologically using the whole-cell configuration of the patch clamp technique (Hamill et al Pflugers Acrhive 1981). This assay directly measures the currents associated with chloride flow through CFTR channels whilst either maintaining or adjusting the transmembrane voltage. This assay can use either single glass micropipettes or parallel planar arrays to measure CFTR activity from native or recombinant cell systems. Currents measured using parallel planar arrays can be quantified using an appropriately equipped instrument such as the IonWorks Quattro (Molecular Devices) or the Qpatch (Sophion). The Quattro system can measure CFTR currents from either a single cell per recording well (HT configuration) or alternatively from a population of 64 cells per well (Population Patch Clamp PPC) (Finkel A, Wittel A, Yang N, Handran S, Hughes J, Costantin J. ‘Population patch clamp improves data consistency and success rates in the measurement of ionic currents.’ J Biomol Screen. 2006 August; 11(5):488-96).
Chinese hamster ovary (CHO) cells stably expressing the ΔF508-CFTR channel were used for IonWorks Quattro experiments. […]

ΔF508-CFTR, sequence (P13569 other isoform, or with tags, fused parts or gaps del F508-F508): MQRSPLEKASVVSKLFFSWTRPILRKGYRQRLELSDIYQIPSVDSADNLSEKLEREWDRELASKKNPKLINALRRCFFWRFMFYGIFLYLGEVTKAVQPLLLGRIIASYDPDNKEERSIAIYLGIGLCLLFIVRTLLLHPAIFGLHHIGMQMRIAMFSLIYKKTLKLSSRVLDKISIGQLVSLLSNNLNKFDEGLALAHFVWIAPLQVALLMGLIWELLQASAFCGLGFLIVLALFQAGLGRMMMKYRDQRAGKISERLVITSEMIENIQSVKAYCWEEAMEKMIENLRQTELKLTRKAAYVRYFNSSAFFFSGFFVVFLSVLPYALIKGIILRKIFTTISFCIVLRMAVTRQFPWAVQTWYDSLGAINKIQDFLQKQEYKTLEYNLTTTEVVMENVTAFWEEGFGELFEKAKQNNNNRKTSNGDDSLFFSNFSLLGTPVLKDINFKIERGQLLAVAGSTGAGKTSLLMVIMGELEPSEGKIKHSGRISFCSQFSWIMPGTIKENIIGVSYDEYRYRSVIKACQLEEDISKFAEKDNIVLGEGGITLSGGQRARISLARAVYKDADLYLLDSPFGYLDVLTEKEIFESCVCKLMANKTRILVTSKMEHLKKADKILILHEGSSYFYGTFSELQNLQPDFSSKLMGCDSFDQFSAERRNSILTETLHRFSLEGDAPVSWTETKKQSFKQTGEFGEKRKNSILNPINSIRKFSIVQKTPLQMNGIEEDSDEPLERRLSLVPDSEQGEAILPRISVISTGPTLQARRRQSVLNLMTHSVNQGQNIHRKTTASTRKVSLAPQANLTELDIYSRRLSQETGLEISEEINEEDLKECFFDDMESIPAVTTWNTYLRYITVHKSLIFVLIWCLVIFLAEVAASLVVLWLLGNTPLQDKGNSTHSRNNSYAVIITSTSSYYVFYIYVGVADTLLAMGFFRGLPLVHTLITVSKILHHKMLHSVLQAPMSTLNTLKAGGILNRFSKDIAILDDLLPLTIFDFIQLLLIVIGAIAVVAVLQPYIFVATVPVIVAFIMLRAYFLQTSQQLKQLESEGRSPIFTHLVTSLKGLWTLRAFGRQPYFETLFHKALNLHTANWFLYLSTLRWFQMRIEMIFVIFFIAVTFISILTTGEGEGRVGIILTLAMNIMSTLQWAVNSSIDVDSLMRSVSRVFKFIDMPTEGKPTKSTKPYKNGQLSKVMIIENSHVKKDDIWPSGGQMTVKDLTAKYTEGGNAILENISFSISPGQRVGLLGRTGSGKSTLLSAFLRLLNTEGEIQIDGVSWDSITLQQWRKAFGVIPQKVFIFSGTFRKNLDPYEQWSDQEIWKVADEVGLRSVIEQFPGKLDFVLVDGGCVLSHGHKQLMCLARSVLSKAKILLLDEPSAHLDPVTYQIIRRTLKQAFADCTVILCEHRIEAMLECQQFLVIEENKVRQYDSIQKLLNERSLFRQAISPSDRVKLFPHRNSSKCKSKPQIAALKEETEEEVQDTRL

Row | SMILES | EC50 [µM]
1 | CC(O)(CNC(=O)c1nc(-c2ccc(Cl)cc2Cl)c(C(F)(F)F)cc1N)C(F)(F)F (single isomer, unassigned) [Example 9, 3-Amino-6-(2,4-dichloro-phenyl)-5-trifluoromethyl-pyridine-2-carboxylic acid (3,3,3-trifluoro-2-hydroxy-2-methyl-propyl)-amide] | 0.09
2 | CC(O)(CNC(=O)c1nc(-c2ccc(Cl)cc2Cl)c(C(F)(F)F)cc1N)C(F)(F)F (single isomer, unassigned) [Example 10, 3-Amino-6-(2,4-dichloro-phenyl)-5-trifluoromethyl-pyridine-2-carboxylic acid (3,3,3-trifluoro-2-hydroxy-2-methyl-propyl)-amide] | 0.112
3 | COc1nc(C(=O)NC[C@](C)(O)C(F)(F)F)c(N)cc1C(F)(F)F [Example 5, 3-Amino-6-methoxy-5-trifluoromethyl-pyridine-2-carboxylic acid ((S)-3,3,3-trifluoro-2-hydroxy-2-methyl-propyl)-amide] | 0.05
4 | COc1nc(C(=O)NC[C@@](C)(O)C(F)(F)F)c(N)cc1C(F)(F)F [Example 6, 3-Amino-6-methoxy-5-trifluoromethyl-pyridine-2-carboxylic acid ((R)-3,3,3-trifluoro-2-hydroxy-2-methyl-propyl)-amide] | 0.426

same assay, conditions: data measurements described above; read-out: CFTR EC50

Row | SMILES | EC50 [µM]
5 | Nc1cc(C(F)(F)F)c(Br)nc1C(=O)NCC(=O)O [2-(3-amino-6-bromo-5-(trifluoromethyl)picolinamido)acetic acid] | > 5
6 | Cc1ccc(-c2nc(C(=O)NCC(=O)c3ccc(F)cc3)c(N)cc2C(F)(F)F)cc1C [3-amino-6-(3,4-dimethylphenyl)-N-(2-(4-fluorophenyl)-2-oxoethyl)-5-(trifluoromethyl)picolinamide] | > 5
7 | CN(C)S(=O)(=O)c1cccc(-c2nc(C(=O)NCC(=O)c3ccc(F)cc3)c(N)cc2C(F)(F)F)c1 [3-amino-6-(3-(N, N-dimethylsulfamoyl)phenyl)-N-(2-(4-fluorophenyl)-2-oxoethyl)-5-(trifluoromethyl)picolinamide] | > 5
8 | Cc1cc(C(N)=O)ccc1-c1nc(C(=O)NCC(=O)c2ccc(F)cc2)c(N)cc1C(F)(F)F [3-amino-6-(4-carbamoyl-2-methylphenyl)-N-(2-(4-fluorophenyl)-2-oxoethyl)-5-(trifluoromethyl)picolinamide] | > 5
9 | CN(C)CCCOc1ccc(-c2nc(C(=O)NCC(=O)c3ccc(F)cc3)c(N)nc2C(F)(F)F)cn1 [3-amino-6-(6-(3-(dimethylamino)propoxy)pyridin-3-yl)-N-(2-(4-fluorophenyl)-2-oxoethyl)-5-(trifluoromethyl)pyrazine-2-carboxamide] | > 5
10 | Nc1nc(C(F)(F)F)c(Br)nc1C(=O)NCCc1cccnc1 [3-amino-6-bromo-N-(2-(pyridin-3-yl)ethyl)-5-(trifluoromethyl)pyrazine-2-carboxamide] | > 5
11 | Nc1nc(C(F)(F)F)c(Br)nc1C(=O)NCCc1ccncc1 [3-amino-6-bromo-N-(2-(pyridin-4-yl)ethyl)-5-(trifluoromethyl)pyrazine-2-carboxamide] | > 5
12 | Cn1ccnc1CNC(=O)c1nc(Br)c(C(F)(F)F)nc1N [3-amino-6-bromo-N-((1-methyl-1H-imidazol-2-yl)methyl)-5-(trifluoromethyl)pyrazine-2-carboxamide] | > 5
13 | Cn1cnc(CNC(=O)c2nc(Br)c(C(F)(F)F)nc2N)c1 [3-amino-6-bromo-N-((1-methyl-1H-imidazol-4-yl)methyl)-5-(trifluoromethyl)pyrazine-2-carboxamide] | > 5
14 | Cn1cncc1CNC(=O)c1nc(Br)c(C(F)(F)F)nc1N [3-amino-6-bromo-N-((1-methyl-1H-imidazol-5-yl)methyl)-5-(trifluoromethyl)pyrazine-2-carboxamide] | > 5
15 | Cn1ccc(CNC(=O)c2nc(Br)c(C(F)(F)F)nc2N)n1 [3-amino-6-bromo-N-((1-methyl-1H-pyrazol-3-yl)methyl)-5-(trifluoromethyl)pyrazine-2-carboxamide] | > 5
16 | Cn1nccc1CNC(=O)c1nc(Br)c(C(F)(F)F)nc1N [3-amino-6-bromo-N-((1-methyl-1H-pyrazol-5-yl)methyl)-5-(trifluoromethyl)pyrazine-2-carboxamide] | > 5
17 | Nc1nc(C(F)(F)F)c(Br)nc1C(=O)NCc1cn2ccccc2n1 [3-amino-6-bromo-N-(imidazo[1,2-a]pyridin-2-ylmethyl)-5-(trifluoromethyl)pyrazine-2-carboxamide] | > 5
18 | Nc1nc(C(F)(F)F)c(Br)nc1C(=O)NCc1ncn2ccccc12 [3-amino-6-bromo-N-(imidazo[1,5-a]pyridin-1-ylmethyl)-5-(trifluoromethyl)pyrazine-2-carboxamide] | > 5
19 | CC(C)CN(C)C(=O)c1nc(Br)c(C(F)(F)F)nc1N [3-amino-6-bromo-N-isobutyl-N-methyl-5-(trifluoromethyl)pyrazine-2-carboxamide] | > 5
20 | CC(O)(CNC(=O)c1nc(O)c(C(F)(F)F)cc1N)C(F)(F)F (centres unmarked) [3-amino-6-hydroxy-N-(3,3,3-trifluoro-2-hydroxy-2-methylpropyl)-5-(trifluoromethyl)picolinamide] | > 5
21 | Cn1ccc2ccc(-c3nc(C(=O)NCC(=O)c4ccc(F)cc4)c(N)cc3C(F)(F)F)cc21 [3-amino-N-(2-(4-fluorophenyl)-2-oxoethyl)-6-(1-methyl-1H-indol-6-yl)-5-(trifluoromethyl)picolinamide] | > 5
22 | Nc1cc(C(F)(F)F)c(-c2ccc3c(c2)CCNC3=O)nc1C(=O)NCC(=O)c1ccc(F)cc1 [3-amino-N-(2-(4-fluorophenyl)-2-oxoethyl)-6-(1-oxo-1,2,3,4-tetrahydroisoquinolin-6-yl)-5-(trifluoromethyl)picolinamide] | > 5
23 | CN(Cc1ccccc1)C(=O)c1nc(Br)c(C(F)(F)F)nc1N [3-amino-N-benzyl-6-bromo-N-methyl-5-(trifluoromethyl)pyrazine-2-carboxamide] | > 5
24 | Cc1ccc(C)n1-c1cc(C(F)(F)F)c(On2nnc3cccnc32)nc1C(=O)NCC(C)(O)C(F)(F)F (centres unmarked) [6-((3H-[1,2,3]triazolo[4,5-b]pyridin-3-yl)oxy)-3-(2,5-dimethyl-1H-pyrrol-1-yl)-N-(3,3,3-trifluoro-2-hydroxy-2-methylpropyl)-5-(trifluoromethyl)picolinamide] | > 5
25 | CNc1cc(C(F)(F)F)c(Br)nc1C(=O)NCC(C)(O)C(F)(F)F (centres unmarked) [6-bromo-3-(methylamino)-N-(3,3,3-trifluoro-2-hydroxy-2-methylpropyl)-5-(trifluoromethyl)picolinamide] | > 5
26 | CN1CCN(C(=O)c2nc(Br)c(C(F)(F)F)nc2N)CC1c1ccccc1 (centres unmarked) [(3-amino-6-bromo-5-(trifluoromethyl)pyrazin-2-yl)(4-methyl-3-phenylpiperazin-1-yl)methanone] | > 5
27 | CN1CCN(C(=O)c2nc(Br)c(C(F)(F)F)nc2N)CC1 [(3-amino-6-bromo-5-(trifluoromethyl)pyrazin-2-yl)(4-methylpiperazin-1-yl)methanone] | > 5
28 | CN1CCN[C@H](CNC(=O)c2nc(Br)c(C(F)(F)F)nc2N)C1 [(R)-3-amino-6-bromo-N-((4-methylpiperazin-2-yl)methyl)-5-(trifluoromethyl)pyrazine-2-carboxamide] | > 5
29 | CCN1CCC[C@H]1CNC(=O)c1nc(Br)c(C(F)(F)F)nc1N [(S)-3-amino-6-bromo-N-((1-ethylpyrrolidin-2-yl)methyl)-5-(trifluoromethyl)pyrazine-2-carboxamide] | > 5

From patent US10117858B2, “Pyridine and pyrazine derivative for the treatment of CF” (Novartis AG, priority 2010, dated 2018)
